Test results published in US7179616B1, “Method for detecting phosphatidylserine on the surface of cells” (University of Notre Dame du Lac, priority 2002, dated 2007).
“Also recorded” adds a separate entry of the source.

What was measured:
apoptotic cells [1] = details: cited from earlier work
[2] = 31P NMR titration with DHPS and DHPC in water; type: binding
Description: (§1) Although the fluorescence emission of PSS-380 increases in the presence of vesicles containing PS, it is unchanged if the PS is monodispersed. […] Titration of PSS-380 with increasing amounts of a DHPC:DHPS (1:1) mixture results in no change in fluorescence intensity. Further evidence that PSS-380 has a weak affinity for DHPS and DHPC in water was gained from ^31P NMR titration experiments. The ^31P signals for phospholipid head groups hardly move upon addition of PSS-380. This is in line with previous studies with PSS-380 showing that it has low affinity for neutral or mono-anionic molecules in water, Ojida, A., Mito-Oka, Y., Inoue, M. A. & Hamachi, I. (2002) J. Am. Chem. Soc., 124, 6256–6258, the entire contents and disclosure of which is hereby incorporated by reference.

[3] = test system: POPC:POPG (50:50) vesicles; experiment: Vesicle fluorescence titration of PSS-380, POPC:POPG vesicles; type: binding; details: 50:50, PSS-380 1 μM, HEPES 10 mM, pH 7.2, ex 380, em 440 nm
Method: (§2) Unilamellar vesicles were prepared by initial hydration of a dried lipid film followed by repeated extrusion through polycarbonate membranes having a pore size of 100 nm. Aliquots of vesicle suspension were added to a solution of PSS-380 (1 μM, 3 mL) in HEPES buffer (10 mM) at pH 7.2. The fluorescence emission intensity at 440 nm (ex 380 nm) was measured 15 seconds after the addition of each aliquot.

[4] = Fluorescence titration with monodispersed phospholipids; type: binding; details: DHPC:DHPS (1:1) titration, micromolar concentrations
Description: as §1

100% POPC vesicles = experiment: Vesicle fluorescence titration of PSS-380, zwitterionic POPC vesicles; type: binding
Method: as §2

erythrocytes = experiment: Erythrocyte studies, normal versus scrambled erythrocytes; type: cell-based, human; details: PSS-380 1 μM, 5 mM TES, 150 mM NaCl, pH 7.4, 4×10^9 erythrocytes
Method: Aliquots (10 μL) containing 4.0×10^9 of normal or “scrambled” erythrocytes were added to a solution of PSS-380 (1 μM, 3 mL) in 5 mM TES, 150 mM NaCl, pH 7.4. The erythrocytes were prepared in the following way. Fresh human blood was collected in ice-cold phosphate-buffered-saline (PBS) containing 10 U/mL of heparin. The samples were centrifuged and the supernatant and the top 10% of the erythrocytes were removed. The wash was repeated two more times. An equal volume of PBS was added to the remaining pellet. The desired number of cells was removed, centrifuged and the supernatant discarded. Four volumes of lysis buffer (0.1×PBS containing 0.1 mM EGTA, 1 mM MgCl2, and 1% BSA, plus 1 mM CaCl2 for “scrambled” erythrocytes only) were added to the pellet. The suspensions were vortexed and the lysed cells were placed on ice. After 2 minutes, the cells were resealed by adding 0.4 volumes (relative to the size of the original pellet) of 10×PBS. The tubes were gently inverted and warmed to 37° C. After 30 minutes, 100 volumes of PBS were added, then the cells were centrifuged into pellets, washed three times, and resuspended in TES buffer for use.

[5] = in water; cited from earlier work
[6] = test system: vesicle membranes containing anionic phospholipids (phosphatidylserine, phosphatidylglycerol, phosphatidic acid); experiment: Fluorescence response to vesicle membranes containing anionic phospholipids; type: binding; details: more than a few percent of phosphatidylserine, phosphatidylglycerol or phosphatidic acid
Method: as §2

Jurkat cells [7] = experiment: Toxicity of PSS-380, flow cytometry with PI; type: cell-based; details: 100 μM, one hour
Method: Tests were performed to establish the toxicity of PSS-380.

POPC:POPS vesicles = experiment: Vesicle fluorescence titration of PSS-380, POPC:POPS vesicles; type: binding; details: HEPES 10 mM
Method: as §2

Jurkat cells [8] = experiment: Single-well bulk fluorescence assay for apoptosis; type: cell-based; details: apoptosis induced by camptothecin
Method: The ability of PSS-380 to detect cell apoptosis was also examined in the present invention. This was approached in three ways. First, it was assessed whether PSS-380 could be used in a single-well, bulk fluorescence assay for apoptosis. […] Thus, cell apoptosis may be detected qualitatively using PSS-380 in a simple, single-well, bulk fluorecence assay.

[9] = test system: POPC:POPA (50:50) vesicles; experiment: Vesicle fluorescence titration of PSS-380, POPC:POPA vesicles; type: binding; details: 50:50, PSS-380 1 μM, HEPES 10 mM, pH 7.2, ex 380, em 440 nm
Method: as §2

apoptotic cells [10] = experiment: Cell staining and fluorescence microscopy of apoptotic cells; type: cell-based
Method: Jurkat E6-1 cells were grown in RPMI 1640 growth media supplemented with 10% fetal bovine serum. MCF-7 cells were grown in DMEM growth media with 10% fetal bovine serum. […] Suspended cells (Jurkat) were grown to a density of 1×10^6 cells/mL. Before staining with annexin V-FITC, the growth media was changed to a binding buffer containing 5 mM TES/145 mM NaCl, 2.5 mM CaCl2, at pH 7.4. The cells were incubated with annexin V-FITC (10 μL of Pharmingen stock solution per mL cell suspension), 7AAD (5 μL of 50 μg/mL stock solution per mL cell suspension), and PSS-380 (20 μL of 1 mM stock solution per mL cell suspension) for 15 minutes at 37° C. The incubation mixture was aspirated and changed to a buffer containing 5 mM TES, 145 mM NaCl, pH 7.4. At this point, the Jurkat cell suspensions were added to 16-well chamber-slides. Cells were observed directly on an Axiovert S100 TV microscope (Carl Zeiss) equipped with filter sets DAPI/Hoechst/[…]/Bodipy/Fluo3/DiO, Cy3 (Chroma). Pictures were taken using a black and white digital camera and colored afterwards using Photoshop 6.0 software package (Adobe). Fluorescence microscopy was also used to evaluate if PSS-380 could identify sub-populations of live, apoptotic, and dead cells. Cell apoptosis was induced by treatment with camptothecin, or the calcium ionophore A23187. The drug-treated cells and untreated control cells were subsequently stained with a mixture of annexin V-FITC (green), PSS-380 (blue) and 7AAD (red). FIGS. 5, 6 and 7 display typical microscopic images produced using this method. Live cells are not stained by any of the dyes; whereas, staining by 7AAD identifies dead cells with permeable membranes. Cells that are only stained by annexin V-FITC or PSS-380 are defined as apoptotic. The microscopic images show a slight statistical variation in cell staining, due in part to the fact that PSS-380 and annexin V-FITC are competing for the same cell surface binding sites. If the staining experiments are repeated using either annexin V or PSS-380 alone, the emission from positive cells is more homogeneous and with similar intensity.

[11] = test system: membranes that are rich in PS; details: cited from earlier work

## CCCCN(CCCC)c1ccc(/C=C/c2cc[n+](CCC[N+](CC)(CC)CC)cc2)cc1.[Br-].[Br-] [FM1-43]
Apoptotic cells [1]
  signal difference between normal cells and apoptotic cells: 6–10 fold

## CCCCN1C(=O)C(=C/C=C/C=C2\Oc3ccccc3N2CCCS(=O)(=O)[O-])C(=O)N(CCCC)C1=S.[Na+] [MC540]
Apoptotic cells [1]
  signal difference between normal cells and apoptotic cells: about five fold

## O=[N+]([O-])[O-].O=[N+]([O-])[O-].O=[N+]([O-])[O-].O=[N+]([O-])[O-].[Zn+2].[Zn+2].c1ccc(CN(Cc2ccccn2)Cc2c3ccccc3c(CN(Cc3ccccn3)Cc3ccccn3)c3ccccc23)nc1 [PSS-380]
[2]
  movement of 31P signals for phospholipid head groups upon addition of sensor: hardly move
[3]
  change in fluorescence intensity, POPC:POPG vesicles: eleven-fold increase
[4]
  change in fluorescence intensity with monodispersed phospholipids: not affected; also recorded: no change
100% POPC vesicles
  affinity with membranes composed only of zwitterionic phospholipids: no apparent affinity
100% POPC vesicles; PSS-380 1 μM, HEPES 10 mM, pH 7.2, ex 380, em 440 nm
  change in fluorescence after addition of zwitterionic POPC vesicles: not affected; also recorded: No change
erythrocytes
  fluorescence induced by scrambled erythrocytes compared to equal number of normal erythrocytes: much higher
[5]
  association constant for phosphorylated compounds like phosphotyrosine: around 10^7 M^−1
[6]
  change in fluorescence intensity with vesicle membranes containing anionic phospholipids: increases up to ten-fold
Jurkat cells [7]
  change in cell viability, judged by PI staining: no change in cell viability
POPC:POPS vesicles; 50:50, PSS-380 1 μM, pH 7.2, ex 380, em 440 nm
  change in fluorescence intensity, POPC:POPS 50:50 vesicles: ten-fold increase
POPC:POPS vesicles; POPC:POPS 95:5, PSS-380 1 μM, pH 7.2
  change in fluorescence emission, vesicles containing 5 mol % of POPS: four-fold rise
Jurkat cells [8]
  emission in presence of apoptotic Jurkat cells versus equal number of live cells: twice as intense (±5%)
[9]
  change in fluorescence intensity, POPC:POPA vesicles: six-fold increase
Apoptotic cells [10]
  effect of the presence of Ca^2+ on binding to apoptotic cells: not noticeably inhibited
  speed of binding to apoptotic cells: almost instantaneous
Apoptotic cells [10]; 10 mM EDTA
  staining after treatment with 10 mM EDTA: fades rapidly
Apoptotic cells [10]; microscopy data
  staining intensity compared with annexin V: more intense than annexin V

## annexin V: 35 Kd PS-binding protein
[11]
  incubation time required for complete binding: up to one hour
[11]; in the presence of sufficient calcium
  association constant for binding to membranes that are rich in PS: around 10^8 M^−1
Apoptotic cells [1]
  signal difference between normal cells and apoptotic cells: up to 100 fold

## anthracene zinc dipicolylamine [AZD, reference compound]
[6]
  change in fluorescence intensity with vesicle membranes containing anionic phospholipids: hardly changed
